Measurements from ChEMBL document CHEMBL1159225, “Oceanapamine, a sesquiterpene alkaloid from the Philippine sponge Oceanapia sp” (J Nat Prod, 1995).
Calls of active or inactive are those of the source. No cut-off for these calls is given here.

Legend:
Assay type in all cases: functional, organism-based
[1] = tested on: Staphylococcus aureus; test: Antimicrobial activity against Staphylococcus aureus at 50 ug/disk by standard disk assay
[2] = tested on: Bacillus subtilis; test: Antimicrobial activity against Bacillus subtilis at 25 ug/disk by standard disk assay
[3] = tested on: Pseudomonas aeruginosa; test: Antimicrobial activity against Pseudomonas aeruginosa at 100 ug/disk by standard disk assay
[4] = tested on: Candida albicans; test: Antifungal activity against Candida albicans at 50 ug/disk by standard disk assay
[5] = tested on: Escherichia coli; test: Antimicrobial activity against Escherichia coli at 25 ug/disk by standard disk assay

Row | SMILES | Activity [1] | Activity [2] | Activity [3] | Activity [4] | Activity [5]
1 | C=C1CCCC(C)(C)[C@H]1CC/C(C)=C/Cc1nc[nH]c1CCN | Active | Active | Active | Active | Active
2 | C=C1CCCC(C)(C)[C@H]1CC/C(C)=C/Cc1ncn2c1CCNC2=O | inactive | inactive | inactive | inactive | inactive
